One series is described as follows: Cytotoxicity assay (MTT). It is filed as cell-based, BALB/c mice. The settings on record: mouse. The method, then: The peritoneal macrophages were obtained from BALB/c mice elicited with 3 mL Brewer thioglycollate medium for 72 h, intraperitoneal. After euthanasia, cells were obtained by peritoneal washing with PBS, centrifuged at 4000 rpm for 5 min, and suspended in RPMI 1640 medium plus 10% FBS, 100 U/mL of penicillin and 100 µg/mL of streptomycin [50]. The cells were immediately used in experiments and maintained at 37 °C and 5% CO2.
Blanks were composed by wells without cells and wells with cells plus 1% of DMSO only. Cell viability was carried out by the modified MTT colorimetric method as described before. Tem microliters of MTT at 5 mg/mL was added to each well and incubated for two hours at 37 °C and 5% CO2. The plate was then centrifuged for five minutes at 1500 rpm, the supernatants were removed and the formazan crystals solubilized with 100 μL of DMSO in a shaker-plate for 10 min. The absorbance was determined in a spectrophotometer at a wavelength of 570 nm.

Series [1] relates to Leishmania amazonensis promastigote. The series is described as follows: Activity against promastigote forms (MTT). As to conditions: for IC50: read-out: IC50 Promastigote. It is filed as cell-based. The protocol: Leishmania amazonensis (MHOM/BR/76/MA-76) promastigote forms of were cultured at 26 °C in Schneider’s Insect medium added with 10% fetal bovine sera (FBS), 100 U/mL of penicillin and 100 µg/mL of streptomycin. Parasite cultures with a maximum of seven in vitro passages were used. […] Blanks composed by wells without parasites and wells with parasites plus DMSO 1% only were used as controls. A modified colorimetric method with tetrazolium-dye MTT was used to evaluate parasite viability. A quantity of 10 µL of MTT (5 mg/mL) was added to each well. After five hours, 150 µL of DMSO was added to each well to dissolve the formazan crystals. Absorbance was read on a spectrophotometer at a wavelength of 570 nm. The data was normalized and the results were used to calculate the IC50 (50% inhibition of parasite growth). Miltefosine was used as a reference drug.

The test system of series [2] is Leishmania amazonensis intracellular amastigotes. The series is described as follows: Activity against intracellular amastigote in infected peritoneal macrophages, and selectivity index. It is filed as cell-based. As to conditions: for amastigotes per infected cell / number of amastigotes per 200 cells / parameters of infection (amastigotes per 200 cells, percentage of infected cells, amastigotes per infected cell): compared with untreated infected cells; for IC50: Leishmania amazonensis, Peritoneal macrophage, in Mus musculus, read-out: IC50 Intracellular Amastigote; for SI (selectivity index): ratio of CC50 versus the IC50 for intracellular amastigotes. The protocol: Activity against the intracellular amastigotes was carried out in 24-well plates with coverslips with peritoneal macrophages (5 × 10^5 cells/well). Cells were infected with L. amazonensis promastigote forms using a ratio of 10:1 parasite/cell. After 6 h after infection the cells were washed three times with PBS to remove non-internalized parasites. […] The infected and treated cells adhered to the coverslips were fixed with Bouin, stained with Giemsa’s azur-eosin-methylene blue and examined by light microscopy. […] The percentage of infected cells was determined by number of infected cells divided by two. […] The selectivity index was calculated from the ratio of CC50 versus the IC50 for intracellular amastigotes.

In series [3] the test system is Leishmania amazonensis promastigotes. The series is described as follows: Transmission electron microscopy of treated promastigotes. The format is cell-based. As to conditions: 24 h of treatment at IC50. The protocol:
The parasites were fixed with 2.5% glutaraldehyde in a 0.1 M sodium-cacodylate buffer, pH 7.2 overnight. Then, parasites were washed three times with 0.1 M sodium-cacodylate buffer, post-fixed in a solution composed by 1% osmium tetroxide, 0.8% potassium ferrocyanide, and 5 mM calcium chloride, dehydrated in graded acetone and embedded in EPON 812.

In series [4] the test system is BALB/c peritoneal macrophages. The series is described as follows: Nitrite quantification (Griess) in supernatant of macrophages stimulated with L. amazonensis. The format is cell-based, BALB/c mice. The settings on record: compound at 18.7 μM, 48 h. The method, then: BALB/c peritoneal macrophages at 5 × 10^6 cells/mL were stimulated with L. amazonensis promastigotes (10:1 parasites:cell) for one hour, and treated with different concentrations of triazole compounds for 48 h. Nitrite quantification of the supernatant of the cells was performed with Griess reagent. […] The nitrite concentrations were obtained from the standard curve of sodium nitrite (100 to 0.3 μM).

Setting [5] is: BALB/c peritoneal macrophages, 24 h of treatment, MTT, read-out: CC50.
Where [6] appears, read: L. amazonensis promastigotes, 24 h of treatment per table title, MTT.
Setting [7] is: Leishmania amazonensis, 24 h, L. amazonensis promastigotes, 24 h of treatment per table title, MTT.
Where [8] appears, read: L. amazonensis in BALB/c peritoneal macrophages, 24 h of treatment.

Each structure is given as a SMILES string. Where two headings read alike, the source gives them in different places. Where only a bound is given, the exact number is not on record here.

A word on the CC50: it is the concentration at which the toxic effect on the cells reaches its halfway point. Usually IC50 stands for the point on the concentration scale where inhibition reaches its midpoint.

As to `O=Cc1ccccc1-n1cc(COc2ccccc2)nn1` [Compound 1], the CC50 at 24 h in “Cytotoxicity assay (MTT)” (setting [5]) turned out to be 221 ± 4.82 µM. The IC50 was 53.7 ± 8.47 µM in series [1] (setting [6]) and > 50 µM in series [1] (setting [7]).
With `O=Cc1ccccc1-n1cc(COc2cccc(OCc3cn(-c4ccccc4C=O)nn3)c2)nn1` [Compound 2], the “amastigotes per infected cell” value in series [2] (37.5 μM, 24 h) is “decreased”. Moreover, the “number of amastigotes per 200 cells” value in series [2] (37.5 μM, 24 h) was “decreased”. The IC50 in series [2] (setting [8]) is 37.9 ± 3.35 µM; in series [1] (setting [6]) it was 8.85 ± 3.44 µM; in series [1] (setting [7]) it was < 10 µM. The “SI (selectivity index)” value in series [2] is 6.55. In addition, the “ultrastructural alterations in promastigotes” value (“ultrastructural alterations” below) in series [3] is “increase in lipid corpuscles (white arrows), electron dense vesicles inside small vacuoles in the cytoplasm”. In the series “Cytotoxicity assay (MTT)” (setting [5]), the CC50 at 24 h came out at 248 ± 2.52 µM.
For `O=Cc1ccccc1-n1cc(COc2cccc(O)c2)nn1` [Compound 3], in “Cytotoxicity assay (MTT)” (setting [5]), the CC50 at 24 h is 308 ± 4.07 µM. Besides, the figures for the IC50 in series [1] (setting [6]) and in series [1] (setting [7]) were 50.9 ± 4.57 µM and > 50 µM, respectively.
For `C#CCOc1cccc(OCc2cn(-c3ccccc3C=O)nn2)c1` [Compound 4], in series [2], the “increase in IC50 value against intracellular amastigote compared to promastigote forms” value amounted to 9.5 fold and the “SI (selectivity index)” value is 0.96. For the same compound, in series [2] (37.5 μM, 24 h), the “number of amastigotes per 200 cells” value is given as “statistically decreased” and the “parameters of infection (amastigotes per 200 cells, percentage of infected cells, amastigotes per infected cell)” value is “did not significantly alter the other parameters of infection”. For the same compound, in series [2] (setting [8]), the IC50 worked out at 150 ± 6.37 µM. For the same compound, the “ultrastructural alterations” value in series [3] is “swelling of the kinetoplast and a change in chromatin distribution”. Further, in the series “Cytotoxicity assay (MTT)” (setting [5]), the CC50 at 24 h is 145 ± 4.1 µM. In series [1] (setting [6]), the IC50 came out at 15.7 ± 5.42 µM. Besides, the IC50 in series [1] (setting [7]) was ~15 µM.
Consider `Cc1ccc(S(=O)(=O)N/N=C/c2ccccc2-n2cc(COc3ccccc3)nn2)cc1` [Compound 5], for which the “parameters of infection (amastigotes per 200 cells, percentage of infected cells, amastigotes per infected cell)” value in series [2] (37.5 μM, 24 h) was “reduced all the three parameters of infection”. Besides, the IC50 in series [2] (setting [8]) was 32.3 ± 2.26 µM; in series [1] (setting [6]) it was 8.81 ± 3.93 µM; in series [1] (setting [7]) it was < 10 µM. Moreover, in series [2], the “SI (selectivity index)” value is given as 1.79. Also, the “ultrastructural alterations” value in series [3] was “lipid corpuscles (white arrows) (Figure 6A), extension of the kinetoplast containing granular material”. Moreover, the CC50 at 24 h in “Cytotoxicity assay (MTT)” (setting [5]) was found to be 58 ± 2.65 µM.
For the compound `C(=N\Nc1ccccc1)/c1ccccc1-n1cc(COc2ccccc2)nn1` [Compound 6], the “amastigotes per infected cell” value in series [2] (18.7 μM, 24 h) is recorded as “still able to reduce”. The “number of amastigotes per 200 cells” value was “still able to reduce” in series [2] (18.7 μM, 24 h) and “remarkable reduction” in series [2] (37.5 μM, 24 h). The “parameters of infection (amastigotes per 200 cells, percentage of infected cells, amastigotes per infected cell)” value in series [2] (37.5 μM, 24 h) is reported as “altered all the three parameters of infection”. For the same compound, the IC50 is 17.8 ± 3.26 µM in series [2] (setting [8]), 14.6 ± 4.39 µM in series [1] (setting [6]) and ~15 µM in series [1] (setting [7]). In addition, the “SI (selectivity index)” value in series [2] came out at 30.81. The “ultrastructural alterations” value in series [3] is “lipid corpuscles (white arrows) (Figure 7A), large vacuoles containing electron-dense material”. Further, the “nitrite level relative to untreated infected macrophages” value in series [4] was 2.3 fold. Moreover, the CC50 at 24 h in the series “Cytotoxicity assay (MTT)” (setting [5]) came out at 547.9 ± 3.26 µM.
Consider `O=Cc1ccccc1-n1cc(-c2ccccc2)nn1` [Compound 7], for which the CC50 at 24 h in the series “Cytotoxicity assay (MTT)” (setting [5]) turned out to be 412 ± 4.92 µM. Besides, the IC50 in series [1] (setting [6]) was 63 ± 5.88 µM; in series [1] (setting [7]) it was > 50 µM.
On to `OCc1ccccc1-n1cc(COc2ccccc2)nn1` [Compound 8], for which the CC50 at 24 h in the series “Cytotoxicity assay (MTT)” (setting [5]) is > 600 µM. Besides, the “IC50 Promastigote” value in series [1] (setting [6]) is listed as “did not exhibit any such activity even at the maximum analyzed concentration”. Besides, in series [1] (setting [7]), the IC50 was > 300 µM.
The like results for `O=c1ccc2cc(-n3cc(COc4ccccc4)nn3)ccc2o1` [Compound 10] were, in that order, > 600 µM, “did not exhibit any such activity even at the maximum analyzed concentration” and > 300 µM.
On to `CCCCCCCCCCCCCCCCOP(=O)([O-])OCC[N+](C)(C)C` [Miltefosine, miltefosine, reference compound], for which, in series [2] (25 and 12.5 μM, 24 h), the “parameters of infection (amastigotes per 200 cells, percentage of infected cells, amastigotes per infected cell)” value is given as “reduction of all three parameters of infection”. Moreover, the IC50 is 11.6 ± 1.79 µM in series [2] (24 h) and 8.56 ± 0.695 µM in series [1] (Leishmania amazonensis, 24 h). In addition, in the series “Cytotoxicity assay (MTT)” (BALB/c), the midpoint of cytotoxicity, the CC50 at 24 h, lay at 153 ± 3.85 µM.

Source of the values: PMC7555349, “1,4-Disubstituted-1,2,3-Triazole Compounds Induce Ultrastructural Alterations in Leishmania amazonensis Promastigote: An in Vitro Antileishmanial and in Silico Pharmacokinetic Study” (International Journal of Molecular Sciences, 2020).
